{
  "source": "patent US20220281931A1",
  "about": "“CHEMICALLY INDUCIBLE POLYPEPTIDE POLYMERIZATION” (Dana-Farber Cancer Institute, Inc., priority 2019, published 2022)",
  "key": {"[1]": {"biological_target": "T1, eGFPBCL6^1-275 and V5SIAH1 (Homo sapiens, UniProt P41182)", "T1 construct": "expressed in transfected cells; host or cells: HEK293TCas9 cells, lentiviral transduction", "test": "Immunofluorescence of SIAH1 and BCL6 foci in HEK293T cells", "format": "cell-based", "details": "HEK293TCas9 cells, 0.5 μM MLN7243 pre-treatment 2 hours, 1 μM BI-3802 1 hour", "description": "HEK293TCas9 cells expressing eGFPBCL6^250 and eGFPBCL6^275 constructs were transduced with V5SIAH1^C44S (infection rate >70%). […] The cells were fixed with 4% formaldehyde for 15 min and permeabilized with 0.1% Triton X100 for 30 min. Epitopes were blocked with 10% BSA for 10 min. Anti-V5 antibodies were added and incubated on slides overnight at 4° C. After removal of the primary antibodies and washes, Alexa Fluor 633-conjugated anti-mouse antibodies were added and incubated at room temperature for 45 min. Finally, the slides were stained with DAPI (BD Biosciences, #564907, 1:5,000 in H2O) and mounted with SlowFader™ Diamond Antifade Mountant (Thermo Fisher Scientific, S36963). Cells were imaged with the Leica TCS SP5 confocal microscope."}, "BCL6^5-129": {"biological_target": "T2, BCL6^5-129 (Homo sapiens, UniProt P41182)", "T2 construct": "mixing 100 nM biotinylated BCL6^5-129, 100 nM N-terminal FITC-labeled BCoR peptide; made in house; host or cells: Trichoplusia ni High Five insect cells, baculovirus", "test": "BCL6-BCoR TR-FRET (compound binding assay)", "details": "0.1 μM FITCBCoR polypeptide, 0.1 μM BiotinBCL6^5-129", "description": "Competitive titration of BI-3802 or BI-3812 were carried out by mixing 100 nM biotinylated BCL6^5-129, 100 nM N-terminal FITC-labeled BCoR peptide (sequence: […]), and 2 nM terbium-coupled streptavidin in the same assay buffer. After dispensing the assay mixture (15 μL volume), increasing concentrations of compounds were dispensed in a 384-well microplate (Corning, 4514) using a D300e Digital Dispenser (HP) normalized to 1% DMSO. The 520/490 nm ratios were measured as described above and plotted to calculate the KD^APP values using dose-response analysis standard four parameter log-logistic curves using the dr4pl R package."}, "BCL6^5-360 [2]": {"biological_target": "T3, BCL6^5-360 (Homo sapiens, UniProt P41182)", "T3 construct": "size-exclusion chromatogram of purified BCL6^5-360 in the presence of DMSO; made in house; host or cells: Trichoplusia ni High Five insect cells, baculovirus", "test": "Size-exclusion chromatography of purified recombinant BCL6", "format": "biochemical", "details": "purified BCL6^5-360, 2 μM compound", "description": "The human wild-type and mutant versions of BCL6 (residue 5-129 or 5-360) and SIAH1 variants (residue 90-282 (substrate binding domain, SBD) or full length), were cloned in pAC-derived vectors. Baculovirus for protein expression (Invitrogen) was generated by transfection into Spodoptera frugiperda (Sf9) cells at a density of 0.9×10^6 cells/mL grown in ESF 921 media (Expression Systems), followed by three rounds of infection in Sf9 cells to increase viral titer. Recombinant proteins were expressed and purified as N-terminal His6 C-terminal Spy (wild-type and mutant versions of BCL6^5-360), N-terminal Strep II-Avi (BCL6^5-129, BCL6^5-360, and SIAH1^SBD), and N-terminal Flag (SIAH1^FL) fusions in Trichoplusiani High Five insect cells using the baculovirus expression system (Invitrogen)."}, "BCL6^5-360 [3]": {"biological_target": "T3, BCL6^5-360", "test": "Negative stain electron microscopy of BCL6", "format": "biochemical", "details": "BCL6^5-360, 2 μM or 20 μM BI-3802", "description": "The incubated protein samples were rapidly diluted to 10 μg/mL (sample treated with DMSO) or 50 μg/ml (samples treated with BI-3802). A 5 μL aliquot was applied to glow-discharged 400-mesh carbon-coated nickel grids (CF400-NI-UL, Electron Microscopy Sciences). After incubating for 1 min, protein was wicked off with a filter paper and the grid was washed twice with distilled water, followed by two rounds of staining with 2% uranyl acetate for 5 s and 20 s, respectively. Grids were imaged at a nominal magnification of 40,000× on a JEOL JEM-1400Plus operated at 80 kV."}, "BCL6 mRNA": {"tested_on": "BCL6 mRNA", "test": "Quantitative PCR of BCL6 mRNA", "format": "cell-based, human", "details": "SuDHL4Cas9 cells, 1 μM, 1 hour", "description": "1×10^6 SuDHL4Cas99 cells were treated with DMSO or 1 μM BI-3802 for 1 h, collected by centrifugation, washed with PBS, and flash frozen in dry ice. mRNA was isolated using the QIAGEN RNA kit (Qiagen, 74106). For cDNA synthesis, total RNA was reverse transcribed with SuperScript™ VILO™ Master Mix (Invitrogen, 11755050) before qPCR analysis with TaqMan Fast Advanced Master Mix (ThermoFisher Scientific, 4444557) for BCL6 (TaqMan, […], Life Technologies) and GAPDH (TaqMan, Hs02758991_g1). Reactions were run and analyzed on QStudio 6 FLX real-Time PCR System (ThermoFisher Scientific)."}, "BCL6^5-360 - SIAH1^SBD": {"biological_target": "T4, BCL6^5-360 - SIAH1^SBD (Homo sapiens, UniProt P41182)", "T4 construct": "200 nM BodipyFL-labeled BCL6^5-360 variants; His6 (N); Spy (C); made in house; host or cells: Trichoplusia ni High Five insect cells, baculovirus", "test": "BCL6-SIAH1 TR-FRET", "format": "biochemical", "details": "preassembled 0.2 μM BodipyBCL6^5-360 and 0.2 μM BiotinSIAH1^SBD, in vitro; read-out: EC50 for increase of the BCL6-SIAH1 interaction", "description": "After dispensing the assay mixture (15 μL volume), increasing concentrations of compounds were dispensed in a 384-well microplate (Corning, 4514) using a D300e Digital Dispenser (HP) normalized to 1% DMSO. After excitation of terbium fluorescence at 337 nm, emission at 490 nm (terbium) and 520 nm (BodipyFL) were recorded with a 70 us delay over 600 μs to reduce background fluorescence, and the reaction was followed over 60 cycles of each data point using a PHERAstar FS microplate reader (BMG Labtech). The TR-FRET signal of each data point was extracted by calculating the 520/490 nm ratio. The half-maximal effective concentration (EC50) values were estimated using dose-response analysis standard four parameter log-logistic curves, fitted to the experimental data using […] package. […] After dispensing the assay mixture, increasing concentration of BodipyFL-BCL6^5-360 was added to the SIAH1 mixture in a […] (7.5 μL each, total 15 μL assay volume). The 520/490 nm ratios were measured in as described above and plotted to calculate the KD^APP values using dose-response analysis standard four parameter log-logistic curves using […] package."}, "lymphoma cells": {"tested_on": "lymphoma cells", "details": "cited from earlier work"}},
  "data": [
    {"smiles": "CNC(=O)COc1cc2cc(Nc3nc(N4C[C@H](C)C[C@H](C)C4)ncc3Cl)ccc2n(C)c1=O", "note": "[BI-3802, 2-((6-((5-chloro-2-((3S,5R)-3,5-dimethylpiperidin-1-yl)pyrimidin-4-yl)amino)-1-methyl-2-oxo-1,2-dihydroquinolin-3-yl)oxy)-N-methylacetamide]", "values": [
      {"measurement": "SIAH1 colocalization to BCL6 foci", "setting": "[1]", "result": "SIAH1 colocalized to BCL6 foci in a V×P motif dependent manner"},
      {"measurement": "affinity of compound to BCL6 (BCoR peptide competition)", "setting": "BCL6^5-129", "result": "comparable affinity"},
      {"measurement": "higher molecular weight species of recombinant BCL6", "setting": "BCL6^5-360 [2]", "result": "led to higher molecular weight species of BCL6"},
      {"measurement": "higher-order BCL6 structures by negative stain EM", "setting": "BCL6^5-360 [3]", "result": "formation of regular structures with a sinusoidal shape was observed"},
      {"measurement": "BCL6 mRNA expression", "setting": "BCL6 mRNA", "result": "did not alter BCL6 mRNA expression"},
      {"measurement": "EC50", "setting": "BCL6^5-360 - SIAH1^SBD", "result": 64, "unit": "nM"},
      {"measurement": "activity against lymphoma cells compared to BI-3812", "setting": "lymphoma cells", "result": "markedly increased activity against lymphoma cells"}
    ]}
  ]
}
